Assay results taken from ChEMBL document CHEMBL5614413, “Design, synthesis and biological evaluation of amphiphilic benzopyran derivatives as potent antibacterial agents against multidrug-resistant bacteria” (Eur J Med Chem, 2024).
≈ marks a conversion by molar mass, not a printed value.

Legend:
Staphylococcus aureus [1] = experiment: Antibacterial activity against erythromycin-susceptible Staphylococcus aureus ATCC 25923; type: functional
Staphylococcus aureus [2] = experiment: Antibacterial activity against penicillin-resistant Staphylococcus aureus ATCC 31007; type: functional
Staphylococcus aureus [3] = experiment: Antibacterial activity against methicillin-resistant Staphylococcus aureus ATCC 43300; type: functional
Bacillus subtilis = experiment: Antibacterial activity against penicillin-susceptible Bacillus subtilis ATCC 9372; type: functional
Enterococcus faecalis = experiment: Antibacterial activity against vancomycin-susceptible Enterococcus faecalis ATCC 29212; type: functional
[4] = test system: Staphylococcus epidermidis; experiment: Antibacterial activity erythromycin-susceptible Staphylococcus epidermidis ATCC 12228; type: functional
Klebsiella pneumoniae = experiment: Antibacterial activity against Klebsiella pneumoniae ATCC 10031; type: functional
Acinetobacter baumannii = experiment: Antibacterial activity against Acinetobacter baumannii ATCC 19606; type: functional
Escherichia coli = experiment: Antibacterial activity against penicillin-susceptible Escherichia coli ATCC 25922; type: functional
Pseudomonas aeruginosa = experiment: Antibacterial activity against penicillin-susceptible Pseudomonas aeruginosa ATCC 27853; type: functional
[5] = Hemolytic activity in sheep RBC; type: toxicity, cell-based, Ovis aries, Erythrocyte; details: sheep red blood cells (erythrocytes)
[6] = Selectivity index, ratio of HC50 for hemolytic activity in sheep RBC to MIC for antibacterial activity against methicillin-resistant Staphylococcus aureus ATCC 43300; type: toxicity; details: sheep red blood cells (erythrocytes), read-out: Selectivity Index

Molecule	MIC (Staphylococcus aureus [1]) [µg/mL]	MIC (Staphylococcus aureus [2]) [µg/mL]	MIC (Staphylococcus aureus [3]) [µg/mL]	MIC (Bacillus subtilis) [µg/mL]	MIC (Enterococcus faecalis) [µg/mL]	MIC [4] [µg/mL]	MIC (Klebsiella pneumoniae) [µg/mL]	MIC (Acinetobacter baumannii) [µg/mL]	MIC (Escherichia coli) [µg/mL]	MIC (Pseudomonas aeruginosa) [µg/mL]	HC50 [5] [µg/mL]	selectivity ratio [6]
CC(=O)c1ccc2c(c1OCCCN(C)CCCN(C)C)C=CC(C)(CCC=C(C)C)O2 (stereo unspecified)	16 (≈ 36.1 µM)	32 (≈ 72.3 µM)	16 (≈ 36.1 µM)	16 (≈ 36.1 µM)	16 (≈ 36.1 µM)	16 (≈ 36.1 µM)	8 (≈ 18.1 µM)	8 (≈ 18.1 µM)	8 (≈ 18.1 µM)	32 (≈ 72.3 µM)	160	10
CCCCN(CCCC)CCCNCCCOc1ccc(/C=C/C(=O)c2ccc3c(c2OC)C=CC(C)(CCC=C(C)C)O3)cc1 (stereo unspecified)	8 (≈ 12.7 µM)	4 (≈ 6.34 µM)	4 (≈ 6.34 µM)	4 (≈ 6.34 µM)	2 (≈ 3.17 µM)	1 (≈ 1.59 µM)	16 (≈ 25.4 µM)	8 (≈ 12.7 µM)	4 (≈ 6.34 µM)	128 (≈ 203 µM)	66.9	16.7
CC(=O)c1c(OCCCN(CCCN(C)C)CCCN(C)C)c2c(c3c1OC(C)(CCC=C(C)C)C=C3)OC(C)(CCC=C(C)C)C=C2 (stereo unspecified)	4 (≈ 6.02 µM)	4 (≈ 6.02 µM)	2 (≈ 3.01 µM)	4 (≈ 6.02 µM)	4 (≈ 6.02 µM)	4 (≈ 6.02 µM)	8 (≈ 12 µM)	8 (≈ 12 µM)	8 (≈ 12 µM)	128 (≈ 193 µM)	30.2	15.1
CC(=O)c1ccc2c(c1OCC(=O)NCCN(C)C)C=CC(C)(CCC=C(C)C)O2 (stereo unspecified)	64 (≈ 154 µM)	128 (≈ 309 µM)	128 (≈ 309 µM)	64 (≈ 154 µM)	64 (≈ 154 µM)	64 (≈ 154 µM)	32 (≈ 77.2 µM)	64 (≈ 154 µM)	128 (≈ 309 µM)	128 (≈ 309 µM)	316	4.9
CC(=O)c1ccc2c(c1OCCCN1CCCC1)C=CC(C)(CCC=C(C)C)O2 (stereo unspecified)	32 (≈ 80.5 µM)	16 (≈ 40.2 µM)	16 (≈ 40.2 µM)	16 (≈ 40.2 µM)	16 (≈ 40.2 µM)	8 (≈ 20.1 µM)	8 (≈ 20.1 µM)	32 (≈ 80.5 µM)	> 128	> 128	366	
CCN(CC)CCCNCCCOc1c(C(C)=O)ccc2c1C=CC(C)(CCC=C(C)C)O2 (stereo unspecified)	8 (≈ 17.5 µM)	16 (≈ 35 µM)	8 (≈ 17.5 µM)	8 (≈ 17.5 µM)	8 (≈ 17.5 µM)	8 (≈ 17.5 µM)	8 (≈ 17.5 µM)	8 (≈ 17.5 µM)	8 (≈ 17.5 µM)	16 (≈ 35 µM)	140	17.5
COLISTIN	128	128	128	16	128	64	1	1	0.5	0.5		
CCCCN(CCCC)CCCNCCCOc1c2c(c3c(c1C(C)=O)OC(C)(CCC=C(C)C)C=C3)OC(C)(CCC=C(C)C)C=C2 (stereo unspecified)	1 (≈ 1.51 µM)	2 (≈ 3.02 µM)	4 (≈ 6.03 µM)	4 (≈ 6.03 µM)	1 (≈ 1.51 µM)	1 (≈ 1.51 µM)	8 (≈ 12.1 µM)	4 (≈ 6.03 µM)	8 (≈ 12.1 µM)	128 (≈ 193 µM)	36.7	9.2
CC(=O)c1ccc2c(c1OCC(=O)NCCCN1CCCC1)C=CC(C)(CCC=C(C)C)O2 (stereo unspecified)	32 (≈ 70.4 µM)	32 (≈ 70.4 µM)	32 (≈ 70.4 µM)	64 (≈ 141 µM)	64 (≈ 141 µM)	64 (≈ 141 µM)	64 (≈ 141 µM)	128 (≈ 282 µM)	> 128	> 128	167	5.2
CNCCCOc1c(C(C)=O)ccc2c1C=CC(C)(CCC=C(C)C)O2 (stereo unspecified)	8 (≈ 22.4 µM)	8 (≈ 22.4 µM)	16 (≈ 44.8 µM)	8 (≈ 22.4 µM)	4 (≈ 11.2 µM)	4 (≈ 11.2 µM)	16 (≈ 44.8 µM)	8 (≈ 22.4 µM)	16 (≈ 44.8 µM)	64 (≈ 179 µM)	90.1	
CC(=O)c1ccc2c(c1OCCCNCCCN1CCN(C)CC1)C=CC(C)(CCC=C(C)C)O2 (stereo unspecified)	16 (≈ 33.1 µM)	16 (≈ 33.1 µM)	16 (≈ 33.1 µM)	16 (≈ 33.1 µM)	16 (≈ 33.1 µM)	8 (≈ 16.5 µM)	16 (≈ 33.1 µM)	16 (≈ 33.1 µM)	16 (≈ 33.1 µM)	32 (≈ 66.2 µM)	168	10.5
CNCCCOc1ccc(/C=C/C(=O)c2ccc3c(c2OC)C=CC(C)(CCC=C(C)C)O3)cc1 (stereo unspecified)	8 (≈ 16.8 µM)	8 (≈ 16.8 µM)	16 (≈ 33.6 µM)	4 (≈ 8.41 µM)	4 (≈ 8.41 µM)	1 (≈ 2.1 µM)	32 (≈ 67.3 µM)	> 128	> 128	> 128	90.5	5.6
CCNCCCOc1ccc(/C=C/C(=O)c2ccc3c(c2OC)C=CC(C)(CCC=C(C)C)O3)cc1 (stereo unspecified)	8 (≈ 16.3 µM)	8 (≈ 16.3 µM)	8 (≈ 16.3 µM)	8 (≈ 16.3 µM)	4 (≈ 8.17 µM)	1 (≈ 2.04 µM)	32 (≈ 65.4 µM)	> 128	> 128	> 128	59.9	7.5
CC(=O)c1ccc2c(c1OCCCN(CCCN(C)C)CCCN(C)C)C=CC(C)(CCC=C(C)C)O2 (stereo unspecified)	64 (≈ 125 µM)	64 (≈ 125 µM)	32 (≈ 62.3 µM)	32 (≈ 62.3 µM)	64 (≈ 125 µM)	32 (≈ 62.3 µM)	16 (≈ 31.1 µM)	16 (≈ 31.1 µM)	16 (≈ 31.1 µM)	64 (≈ 125 µM)	325	5.1
CCN(CC)C(=O)COc1c(C(C)=O)ccc2c1C=CC(C)(CCC=C(C)C)O2 (stereo unspecified)	> 128	> 128	128 (≈ 320 µM)	> 128	> 128	> 128	> 128	128 (≈ 320 µM)	> 128	> 128	131	1
CC(=O)c1c(OCCCNCCCN2CCOCC2)c2c(c3c1OC(C)(CCC=C(C)C)C=C3)OC(C)(CCC=C(C)C)C=C2 (stereo unspecified)	4 (≈ 6.44 µM)	4 (≈ 6.44 µM)	4 (≈ 6.44 µM)	4 (≈ 6.44 µM)	8 (≈ 12.9 µM)	4 (≈ 6.44 µM)	128 (≈ 206 µM)	128 (≈ 206 µM)	> 128	> 128	18.1	4.5
CC(=O)c1c(OCCCNCCCN2CCCC2)c2c(c3c1OC(C)(CCC=C(C)C)C=C3)OC(C)(CCC=C(C)C)C=C2 (stereo unspecified)	4 (≈ 6.61 µM)	4 (≈ 6.61 µM)	4 (≈ 6.61 µM)	8 (≈ 13.2 µM)	4 (≈ 6.61 µM)	4 (≈ 6.61 µM)	8 (≈ 13.2 µM)	16 (≈ 26.5 µM)	16 (≈ 26.5 µM)	128 (≈ 212 µM)	19.7	4.9
COc1c(C(=O)/C=C/c2ccc(OCCCN)cc2)ccc2c1C=CC(C)(CCC=C(C)C)O2 (stereo unspecified)	8 (≈ 17.3 µM)	16 (≈ 34.7 µM)	8 (≈ 17.3 µM)	8 (≈ 17.3 µM)	16 (≈ 34.7 µM)	8 (≈ 17.3 µM)	16 (≈ 34.7 µM)	16 (≈ 34.7 µM)	8 (≈ 17.3 µM)	16 (≈ 34.7 µM)	111	13.8
CC(=O)c1ccc2c(c1OCCCN1CCOCC1)C=CC(C)(CCC=C(C)C)O2 (stereo unspecified)	> 128	> 128	> 128	128 (≈ 310 µM)	> 128	> 128	> 128	128 (≈ 310 µM)	> 128	> 128	560	< 4.4
CC(=O)c1c(OCCCN2CCSCC2)c2c(c3c1OC(C)(CCC=C(C)C)C=C3)OC(C)(CCC=C(C)C)C=C2 (stereo unspecified)	> 128	> 128	> 128	> 128	> 128	> 128	> 128	> 128	> 128	> 128	844	< 6.6
CC(=O)c1ccc2c(c1OCCCN(C)C)C=CC(C)(CCC=C(C)C)O2 (stereo unspecified)	16 (≈ 43.1 µM)	16 (≈ 43.1 µM)	16 (≈ 43.1 µM)	16 (≈ 43.1 µM)	16 (≈ 43.1 µM)	8 (≈ 21.5 µM)	8 (≈ 21.5 µM)	16 (≈ 43.1 µM)	32 (≈ 86.1 µM)	64 (≈ 172 µM)	194	11.9
COc1c(C(=O)/C=C/c2ccc(OCCCN(C)CCCN(C)C)cc2)ccc2c1C=CC(C)(CCC=C(C)C)O2 (stereo unspecified)	4 (≈ 7.13 µM)	4 (≈ 7.13 µM)	4 (≈ 7.13 µM)	4 (≈ 7.13 µM)	2 (≈ 3.57 µM)	1 (≈ 1.78 µM)	4 (≈ 7.13 µM)	8 (≈ 14.3 µM)	2 (≈ 3.57 µM)	> 128	119	29.8
CC(=O)c1ccc2c(c1OCC(=O)N(CCCN)CCCN)C=CC(C)(CCC=C(C)C)O2.Cl.Cl (stereo unspecified)	> 128	> 128	128	32	> 128	128	> 128	> 128	> 128	> 128	1670	13
CC(=O)c1ccc2c(c1OCCCN1CCSCC1)C=CC(C)(CCC=C(C)C)O2 (stereo unspecified)	> 128	> 128	> 128	> 128	> 128	> 128	> 128	128 (≈ 298 µM)	> 128	> 128	> 1280	< 10
CC(=O)c1c(OCCCN(C)C)c2c(c3c1OC(C)(CCC=C(C)C)C=C3)OC(C)(CCC=C(C)C)C=C2 (stereo unspecified)	2 (≈ 3.83 µM)	2 (≈ 3.83 µM)	4 (≈ 7.67 µM)	2 (≈ 3.83 µM)	1 (≈ 1.92 µM)	1 (≈ 1.92 µM)	> 128	> 128	> 128	> 128	64	16
